Measured values from PubChem BioAssay AID1963420 (Molecular Pharmacology Branch, DTP, NCI, 2024).

Test system: 494315-158-R-J1-PDC complex spheroid growth, percent test/control
Assay: Anticancer human tumor 494315-158-R-J1-PDC patient-derived soft tissue sarcoma cell line growth inhibition [Asc]
Conditions: for IC50: curve of first compound; for viability, T/C: stronger effect = lower value
Outline: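 Complex spheroids combining tumor cells with HUVEC endothelial cells and human MSCs, at 37 degrees C, 5% CO2; agents tested alone or combined, half-log dilutions from at or near clinical Cmax, or 10 microM if Cmax unknown.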

[1] = second compound 0.01 µM, first compound 0.00316 µM
[2] = second compound 0.01 µM, first compound 0.01 µM
[3] = second compound 0.01 µM, first compound 0.0316 µM
[4] = second compound 0.01 µM, first compound 0.1 µM
[5] = second compound 0.01 µM, first compound 0.316 µM
[6] = second compound 0.01 µM, first compound 1 µM
[7] = second compound 0.0316 µM, first compound 0.00316 µM
[8] = second compound 0.0316 µM, first compound 0.01 µM
[9] = second compound 0.0316 µM, first compound 0.0316 µM
[10] = second compound 0.0316 µM, first compound 0.1 µM
[11] = second compound 0.0316 µM, first compound 0.316 µM
[12] = second compound 0.0316 µM, first compound 1 µM
[13] = second compound 0.1 µM, first compound 0.00316 µM
[14] = second compound 0.1 µM, first compound 0.01 µM
[15] = second compound 0.1 µM, first compound 0.0316 µM
[16] = second compound 0.1 µM, first compound 0.1 µM
[17] = second compound 0.1 µM, first compound 0.316 µM
[18] = second compound 0.1 µM, first compound 1 µM
[19] = second compound 0.316 µM, first compound 0.00316 µM
[20] = second compound 0.316 µM, first compound 0.01 µM
[21] = second compound 0.316 µM, first compound 0.0316 µM
[22] = second compound 0.316 µM, first compound 0.1 µM
[23] = second compound 0.316 µM, first compound 0.316 µM
[24] = second compound 0.316 µM, first compound 1 µM
[25] = second compound 1 µM, first compound 0.00316 µM
[26] = second compound 1 µM, first compound 0.01 µM
[27] = second compound 1 µM, first compound 0.0316 µM
[28] = second compound 1 µM, first compound 0.1 µM
[29] = second compound 1 µM, first compound 0.316 µM
[30] = second compound 1 µM, first compound 1 µM
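Further: compound exposure lasted seven days after spheroids formed for three days.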

Work on `CCN1CCN(Cc2ccc(Nc3ncc(F)c(-c4cc(F)c5nc(C)n(C(C)C)c5c4)n3)nc2)CC1` + CNC(C)C(=O)NC1CN(S(=O)(=O)c2cccc(S(=O)(=O)N3CCC4CCC(C(=O)NC(c5ccccc5)c5ccccc5)N4C(=O)C(NC(=O)C(C)NC)C3)c2)CCC2CCC(C(=O)NC(c3ccccc3)c3ccccc3)N2C1=O yielded an IC50 (second compound 0.01 µM) of over 1 µM, an IC50 (second compound 0.0316 µM) of over 1 µM and an IC50 (second compound 0.1 µM) of over 1 µM. For the same molecule, the IC50 (second compound 0.316 µM) was under 0.00316 µM, the IC50 (second compound 1 µM) was under 0.00316 µM and the viability, T/C [1] was 77.8%. For the same molecule, the viability, T/C [2] was 81.6%, the viability, T/C [3] was 67% and the viability, T/C [4] was 64.4%. The viability, T/C [5] was 67.5%, the viability, T/C [6] was 63.8% and the viability, T/C [7] was 56.8%. The viability, T/C [8] was 63.9%, the viability, T/C [9] was 68.7% and the viability, T/C [10] was 52.2%. For the same molecule, the viability, T/C [11] was 57.2%, the viability, T/C [12] was 53.4% and the viability, T/C [13] was 55.6%. For the same molecule, the viability, T/C [14] was 57.4%, the viability, T/C [15] was 48.9% and the viability, T/C [16] was 58.4%. It also gave a viability, T/C [17] of 57.4%, a viability, T/C [18] of 48.9% and a viability, T/C [19] of 51.5%. For the same molecule, the viability, T/C [20] was 46.4%, the viability, T/C [21] was 50.2% and the viability, T/C [22] was 43.4%. The viability, T/C [23] was 51.3%, the viability, T/C [24] was 52.5% and the viability, T/C [25] was 36.3%. For the same molecule, the viability, T/C [26] was 39.7%, the viability, T/C [27] was 44.4% and the viability, T/C [28] was 41.8%. For the same molecule, the viability, T/C [29] was 45.3% and the viability, T/C [30] was 48.5%.
Work on `COc1c(OCCCN2CCOCC2)ccc2c3n(c(=NC(=O)c4cnc(N)nc4)nc12)CCN3` + CNC(C)C(=O)NC1CN(S(=O)(=O)c2cccc(S(=O)(=O)N3CCC4CCC(C(=O)NC(c5ccccc5)c5ccccc5)N4C(=O)C(NC(=O)C(C)NC)C3)c2)CCC2CCC(C(=O)NC(c3ccccc3)c3ccccc3)N2C1=O yielded an IC50 (second compound 0.01 µM) of 0.0171 µM, an IC50 (second compound 0.0316 µM) of 0.011 µM and an IC50 (second compound 0.1 µM) of 0.00459 µM. For the same molecule, the IC50 (second compound 0.316 µM) was under 0.00316 µM, the IC50 (second compound 1 µM) was under 0.00316 µM and the viability, T/C [1] was 65.8%. The viability, T/C [2] was 55.1%, the viability, T/C [3] was 44.7% and the viability, T/C [4] was 22.7%. For the same molecule, the viability, T/C [5] was 16.8%, the viability, T/C [6] was 8.91% and the viability, T/C [7] was 53.5%. For the same molecule, the viability, T/C [8] was 54.3%, the viability, T/C [9] was 37.3% and the viability, T/C [10] was 25.5%. The viability, T/C [11] was 14%, the viability, T/C [12] was 9.58% and the viability, T/C [13] was 52.3%. The viability, T/C [14] was 45.3%, the viability, T/C [15] was 30.1% and the viability, T/C [16] was 18.9%. For the same molecule, the viability, T/C [17] was 12.8%, the viability, T/C [18] was 9.36% and the viability, T/C [19] was 38.2%. It also gave a viability, T/C [20] of 39.2%, a viability, T/C [21] of 28.4% and a viability, T/C [22] of 16.8%. The viability, T/C [23] was 11.8%, the viability, T/C [24] was 9.4% and the viability, T/C [25] was 47.4%. The viability, T/C [26] was 35.2%, the viability, T/C [27] was 25.2% and the viability, T/C [28] was 18.6%. It also gave a viability, T/C [29] of 9.45% and a viability, T/C [30] of 7.69%.
`NC(=O)C(=Cn1cnc(-c2cc(C(F)(F)F)cc(C(F)(F)F)c2)n1)c1cncnc1` + CNC(C)C(=O)NC1CN(S(=O)(=O)c2cccc(S(=O)(=O)N3CCC4CCC(C(=O)NC(c5ccccc5)c5ccccc5)N4C(=O)C(NC(=O)C(C)NC)C3)c2)CCC2CCC(C(=O)NC(c3ccccc3)c3ccccc3)N2C1=O was tested, and the IC50 (second compound 0.01 µM) was 0.0505 µM, the IC50 (second compound 0.0316 µM) was 0.012 µM and the IC50 (second compound 0.1 µM) was 0.00995 µM. For the same molecule, the IC50 (second compound 0.316 µM) was 0.00127 µM, the IC50 (second compound 1 µM) was under 0.000949 µM and the viability, T/C (second compound 0.01 µM, first compound 0.000949 µM) was 73.4%. It also gave a viability, T/C (second compound 0.01 µM, first compound 0.003 µM) of 70.6%, a viability, T/C (second compound 0.01 µM, first compound 0.00949 µM) of 59.4% and a viability, T/C (second compound 0.01 µM, first compound 0.03 µM) of 54.2%. For the same molecule, the viability, T/C (second compound 0.01 µM, first compound 0.0949 µM) was 46.8%, the viability, T/C (second compound 0.01 µM, first compound 0.3 µM) was 7.92% and the viability, T/C (second compound 0.0316 µM, first compound 0.000949 µM) was 58.4%. For the same molecule, the viability, T/C (second compound 0.0316 µM, first compound 0.003 µM) was 58.8%, the viability, T/C (second compound 0.0316 µM, first compound 0.00949 µM) was 51.9% and the viability, T/C (second compound 0.0316 µM, first compound 0.03 µM) was 41.4%. The viability, T/C (second compound 0.0316 µM, first compound 0.0949 µM) was 27.8%, the viability, T/C (second compound 0.0316 µM, first compound 0.3 µM) was 7.91% and the viability, T/C (second compound 0.1 µM, first compound 0.000949 µM) was 51%. It also gave a viability, T/C (second compound 0.1 µM, first compound 0.003 µM) of 64.5%, a viability, T/C (second compound 0.1 µM, first compound 0.00949 µM) of 46.6% and a viability, T/C (second compound 0.1 µM, first compound 0.03 µM) of 39.5%. It also gave a viability, T/C (second compound 0.1 µM, first compound 0.0949 µM) of 23.5%, a viability, T/C (second compound 0.1 µM, first compound 0.3 µM) of 5.3% and a viability, T/C (second compound 0.316 µM, first compound 0.000949 µM) of 49.3%. For the same molecule, the viability, T/C (second compound 0.316 µM, first compound 0.003 µM) was 50.1%, the viability, T/C (second compound 0.316 µM, first compound 0.00949 µM) was 43.8% and the viability, T/C (second compound 0.316 µM, first compound 0.03 µM) was 33.6%. It also gave a viability, T/C (second compound 0.316 µM, first compound 0.0949 µM) of 24.4%, a viability, T/C (second compound 0.316 µM, first compound 0.3 µM) of 5.39% and a viability, T/C (second compound 1 µM, first compound 0.000949 µM) of 35.7%. It also gave a viability, T/C (second compound 1 µM, first compound 0.003 µM) of 36.7%, a viability, T/C (second compound 1 µM, first compound 0.00949 µM) of 40.4% and a viability, T/C (second compound 1 µM, first compound 0.03 µM) of 35.8%. It also gave a viability, T/C (second compound 1 µM, first compound 0.0949 µM) of 21.8% and a viability, T/C (second compound 1 µM, first compound 0.3 µM) of 6.84%.
`NC1CCC(NC2CC2c2ccccc2)CC1` (stereo not given) + CNC(C)C(=O)NC1CN(S(=O)(=O)c2cccc(S(=O)(=O)N3CCC4CCC(C(=O)NC(c5ccccc5)c5ccccc5)N4C(=O)C(NC(=O)C(C)NC)C3)c2)CCC2CCC(C(=O)NC(c3ccccc3)c3ccccc3)N2C1=O was tested, and the IC50 (second compound 0.01 µM) was over 0.1 µM, the IC50 (second compound 0.0316 µM) was over 0.1 µM and the IC50 (second compound 0.1 µM) was over 0.1 µM. It also gave an IC50 (second compound 0.316 µM) of under 0.000316 µM, an IC50 (second compound 1 µM) of under 0.000316 µM and a viability, T/C (second compound 0.01 µM, first compound 0.000316 µM) of 72.2%. It also gave a viability, T/C (second compound 0.01 µM, first compound 0.001 µM) of 70.7%, a viability, T/C [1] of 71.7% and a viability, T/C [2] of 77.2%. The viability, T/C [3] was 77.4%, the viability, T/C [4] was 66.1% and the viability, T/C (second compound 0.0316 µM, first compound 0.000316 µM) was 65.7%. It also gave a viability, T/C (second compound 0.0316 µM, first compound 0.001 µM) of 67.8%, a viability, T/C [7] of 55.7% and a viability, T/C [8] of 70.6%. The viability, T/C [9] was 62.3%, the viability, T/C [10] was 57.3% and the viability, T/C (second compound 0.1 µM, first compound 0.000316 µM) was 53.5%. The viability, T/C (second compound 0.1 µM, first compound 0.001 µM) was 60.9%, the viability, T/C [13] was 47.3% and the viability, T/C [14] was 55.5%. It also gave a viability, T/C [15] of 52.4%, a viability, T/C [16] of 64.5% and a viability, T/C (second compound 0.316 µM, first compound 0.000316 µM) of 45.6%. For the same molecule, the viability, T/C (second compound 0.316 µM, first compound 0.001 µM) was 48.3%, the viability, T/C [19] was 42.1% and the viability, T/C [20] was 43.9%. For the same molecule, the viability, T/C [21] was 43.7%, the viability, T/C [22] was 44.7% and the viability, T/C (second compound 1 µM, first compound 0.000316 µM) was 38.8%. The viability, T/C (second compound 1 µM, first compound 0.001 µM) was 41.9%, the viability, T/C [25] was 42.9% and the viability, T/C [26] was 40.2%. The viability, T/C [27] was 35.7% and the viability, T/C [28] was 46.9%.
